Assay results from paper PMC12079613 (Journal of medicinal chemistry, 2019).
Values belong to the compound of their own block, whether it stands above or below them.

What was measured:
D3R [1] = biological target: T1, D3R (Homo sapiens, UniProt P35462); assay: Radioligand binding, [125I]IABN, HEK cells expressing human D3; details: for D2/D3 ratio: (Ki for D2 receptors)/(Ki for D3 receptors)
human D2 (long) = human D2 (long) (Homo sapiens, UniProt P14416); assay: Radioligand binding, [125I]IABN, HEK cells expressing human D2; details: human D2 in HEK cells, mean ± SEM, at least three experiments
α3β2 = α3β2 (Rattus norvegicus, UniProt P04757+P12390); assay: PDSP binding, α3β2; details: read-out: inhibition in primary assay at 10 μM
α2β4 = α2β4 (Rattus norvegicus, UniProt P12389+P12392); assay: PDSP binding, α2β4; details: read-out: inhibition in primary assay at 10 μM
D3R [2] = biological target: T1, D3R; assay: Dopamine-mediated β-arrestin 2 recruitment assay; format: cell-based; details: DA as orthosteric ligand
[3] = biological target: serotonin subclass receptors; assay: PDSP binding, serotonin subclass receptors; details: read-out: Ki for all of the serotonin subclass receptors
α4β4 = α4β4 (Rattus norvegicus, UniProt P09483+P12392); assay: PDSP binding, α4β4; details: read-out: inhibition in primary assay at 10 μM
α2β2 = α2β2 (Rattus norvegicus, UniProt P12389+P12390); assay: PDSP binding, α2β2; details: read-out: inhibition in primary assay at 10 μM
D2R = D2R (Homo sapiens, UniProt P14416); assay: PDSP β-arrestin recruitment Tango assay, D2R; format: cell-based; details: Tango assays, agonist and antagonist mode
α3β4 = α3β4 (Rattus norvegicus, UniProt P04757+P12392); assay: PDSP binding, α3β4; details: read-out: inhibition in primary assay at 10 μM
D3R [4] = biological target: T1, D3R; assay: PDSP β-arrestin recruitment Tango assay, D3R; format: cell-based; details: Tango assays, agonist and antagonist mode

T1 sequence (P35462 whole entry): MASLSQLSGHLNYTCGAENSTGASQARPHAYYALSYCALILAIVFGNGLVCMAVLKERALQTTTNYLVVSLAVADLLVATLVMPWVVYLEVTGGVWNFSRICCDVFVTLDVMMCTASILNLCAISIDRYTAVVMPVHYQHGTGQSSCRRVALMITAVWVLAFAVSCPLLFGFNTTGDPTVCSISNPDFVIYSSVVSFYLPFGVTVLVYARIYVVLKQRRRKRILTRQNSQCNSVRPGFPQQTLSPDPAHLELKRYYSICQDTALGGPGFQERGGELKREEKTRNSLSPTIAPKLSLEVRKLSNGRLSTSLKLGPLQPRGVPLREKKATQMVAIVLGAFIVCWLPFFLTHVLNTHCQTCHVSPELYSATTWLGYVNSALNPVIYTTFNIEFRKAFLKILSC
α4β4, sequence (P09483 31-630): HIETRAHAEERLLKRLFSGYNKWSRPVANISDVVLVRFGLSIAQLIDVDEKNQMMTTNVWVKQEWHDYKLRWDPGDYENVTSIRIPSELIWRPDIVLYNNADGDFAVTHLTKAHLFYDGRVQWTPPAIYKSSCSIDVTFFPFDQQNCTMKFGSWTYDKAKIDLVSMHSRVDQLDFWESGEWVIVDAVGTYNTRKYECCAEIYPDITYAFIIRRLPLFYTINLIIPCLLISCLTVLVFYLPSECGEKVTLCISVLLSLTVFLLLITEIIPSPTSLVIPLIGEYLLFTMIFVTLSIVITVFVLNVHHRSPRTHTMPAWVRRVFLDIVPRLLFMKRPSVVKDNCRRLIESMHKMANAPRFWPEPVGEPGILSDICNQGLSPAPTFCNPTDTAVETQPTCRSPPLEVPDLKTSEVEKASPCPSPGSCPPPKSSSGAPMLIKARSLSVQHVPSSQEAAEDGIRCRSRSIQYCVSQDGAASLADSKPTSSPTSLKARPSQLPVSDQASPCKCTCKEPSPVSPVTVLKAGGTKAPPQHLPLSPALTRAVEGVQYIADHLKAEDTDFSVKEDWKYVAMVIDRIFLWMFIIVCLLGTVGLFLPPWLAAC
α4β4, sequence (P12392 21-495): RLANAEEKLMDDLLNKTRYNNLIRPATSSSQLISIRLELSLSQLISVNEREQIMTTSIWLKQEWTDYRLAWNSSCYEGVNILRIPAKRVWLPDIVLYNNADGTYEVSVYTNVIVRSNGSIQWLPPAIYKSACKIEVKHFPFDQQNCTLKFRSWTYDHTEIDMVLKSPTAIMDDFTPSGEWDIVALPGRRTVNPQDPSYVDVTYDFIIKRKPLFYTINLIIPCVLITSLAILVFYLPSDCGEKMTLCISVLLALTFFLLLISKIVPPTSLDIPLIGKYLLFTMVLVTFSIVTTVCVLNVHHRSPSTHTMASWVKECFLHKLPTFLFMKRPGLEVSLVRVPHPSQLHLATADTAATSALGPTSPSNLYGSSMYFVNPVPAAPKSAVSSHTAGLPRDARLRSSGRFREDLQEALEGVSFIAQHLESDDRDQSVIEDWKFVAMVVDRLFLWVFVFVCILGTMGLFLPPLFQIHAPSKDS
α3β2, sequence (P04757 26-499): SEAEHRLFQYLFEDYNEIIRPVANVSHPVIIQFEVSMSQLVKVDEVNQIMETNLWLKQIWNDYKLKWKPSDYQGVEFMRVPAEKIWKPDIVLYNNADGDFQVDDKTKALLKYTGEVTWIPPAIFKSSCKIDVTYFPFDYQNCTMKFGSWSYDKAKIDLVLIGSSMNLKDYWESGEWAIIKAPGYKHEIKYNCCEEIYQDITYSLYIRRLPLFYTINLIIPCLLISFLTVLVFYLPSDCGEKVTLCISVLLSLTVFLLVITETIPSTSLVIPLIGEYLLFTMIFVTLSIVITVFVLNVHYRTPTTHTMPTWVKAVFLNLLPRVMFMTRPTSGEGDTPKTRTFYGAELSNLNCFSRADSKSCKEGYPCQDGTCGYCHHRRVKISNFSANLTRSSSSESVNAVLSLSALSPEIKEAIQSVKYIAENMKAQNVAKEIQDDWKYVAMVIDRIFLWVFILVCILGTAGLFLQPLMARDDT
α3β2, sequence (P12390 25-500): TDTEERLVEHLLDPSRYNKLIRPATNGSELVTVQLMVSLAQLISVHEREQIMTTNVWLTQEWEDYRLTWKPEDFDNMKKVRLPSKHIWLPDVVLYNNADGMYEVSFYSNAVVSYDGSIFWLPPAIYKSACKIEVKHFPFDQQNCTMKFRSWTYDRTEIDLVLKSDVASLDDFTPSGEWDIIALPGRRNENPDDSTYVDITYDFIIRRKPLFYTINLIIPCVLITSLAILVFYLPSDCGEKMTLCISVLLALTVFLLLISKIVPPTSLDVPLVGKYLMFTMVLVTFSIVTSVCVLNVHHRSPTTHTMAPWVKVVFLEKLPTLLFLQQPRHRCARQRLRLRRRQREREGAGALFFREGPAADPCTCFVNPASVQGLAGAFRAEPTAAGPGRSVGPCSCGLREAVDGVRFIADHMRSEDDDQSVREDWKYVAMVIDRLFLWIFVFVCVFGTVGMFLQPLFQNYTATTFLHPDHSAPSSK
α2β4, sequence (P12389 28-511): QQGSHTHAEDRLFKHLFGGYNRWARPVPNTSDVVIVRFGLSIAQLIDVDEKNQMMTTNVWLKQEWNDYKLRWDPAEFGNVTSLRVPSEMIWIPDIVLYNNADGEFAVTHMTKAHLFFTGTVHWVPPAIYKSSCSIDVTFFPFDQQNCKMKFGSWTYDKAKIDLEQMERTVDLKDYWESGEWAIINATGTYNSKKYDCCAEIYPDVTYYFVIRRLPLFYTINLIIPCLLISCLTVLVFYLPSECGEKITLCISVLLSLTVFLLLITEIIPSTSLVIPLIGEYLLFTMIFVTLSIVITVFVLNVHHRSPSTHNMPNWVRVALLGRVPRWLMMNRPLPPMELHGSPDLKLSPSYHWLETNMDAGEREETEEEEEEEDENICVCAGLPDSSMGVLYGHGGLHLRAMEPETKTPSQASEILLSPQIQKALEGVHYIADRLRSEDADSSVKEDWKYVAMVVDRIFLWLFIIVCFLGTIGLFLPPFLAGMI
α2β4, sequence (P12392 21-495): as the sequence (P12392 21-495) above
α2β2, sequence (P12389 28-511): as the sequence (P12389 28-511) above
α2β2, sequence (P12390 25-500): as the sequence (P12390 25-500) above
α3β4, sequence (P04757 26-499): as the sequence (P04757 26-499) above
α3β4, sequence (P12392 21-495): as the sequence (P12392 21-495) above
human D2 (long), sequence (P14416 whole entry): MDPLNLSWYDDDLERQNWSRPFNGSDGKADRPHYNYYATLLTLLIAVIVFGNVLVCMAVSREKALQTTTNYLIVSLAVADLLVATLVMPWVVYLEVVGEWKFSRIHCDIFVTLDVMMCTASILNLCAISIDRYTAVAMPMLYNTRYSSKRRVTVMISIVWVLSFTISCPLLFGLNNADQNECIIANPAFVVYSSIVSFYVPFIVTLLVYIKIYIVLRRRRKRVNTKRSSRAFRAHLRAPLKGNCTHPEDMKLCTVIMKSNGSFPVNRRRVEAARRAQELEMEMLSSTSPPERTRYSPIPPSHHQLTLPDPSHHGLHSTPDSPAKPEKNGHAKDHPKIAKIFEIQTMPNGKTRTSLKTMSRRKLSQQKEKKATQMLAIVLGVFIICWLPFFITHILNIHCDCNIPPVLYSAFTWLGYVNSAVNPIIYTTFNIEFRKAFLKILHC
D2R, sequence (P14416 whole entry): as above

Compound: 3-(2-((4-Methyl-5-phenyl-4H-1,2,4-triazol-3-yl)thio)propyl)-3,9-diazaspiro[5.5]undecane [Compound 6f]
D2/D3 ratio (D3R [1]): >197

Compound: COc1ccccc1N1CCC2(CCNCC2)CC1 [4b]
Ki ± SEM D2R (human D2 (long)): 99,379 ± 11,752 nM
D2/D3 ratio (D3R [1]): >2.5
Ki ± SEM D3R (D3R [1]; human D3 in HEK cells, [125I]IABN, mean ± SEM, at least three experiments): >39,319 nM

Compound: CCCCN1CCC2(CCN(c3ccccc3OC)C2)C1 (stereo not shown) [Compound 5c, 2-Butyl-7-(2-methoxyphenyl)-2,7-diazaspiro[4.4]nonane]
D2/D3 ratio (D3R [1]): >1.1

Compound: COc1ccccc1N1CCC2(CCN(CCCSc3nnc(-c4ccccc4)[nH]3)CC2)CC1 [Compound 17, 3-(2-Methoxyphenyl)-9-(3-((5-phenyl-4H-1,2,4-triazol-3-yl)thio)-propyl)-3,9-diazaspiro[5.5]undecane]
D2/D3 ratio (D3R [1]): 35

Compound: COc1ccccc1N1CCC2(CCN(CCSc3nnc(-c4ccccc4)n3C)CC2)CC1 [Compound 20, 3-(2-Methoxyphenyl)-9-(2-((4-methyl-5-phenyl-4H-1,2,4-triazol-3-yl)thio)ethyl)-3,9-diazaspiro[5.5]undecane]
D2/D3 ratio (D3R [1]): 100

Compound: COc1ccccc1N1CCN(CCCSc2nnc(-c3ccccc3)n2C)CC1 [Compound 31]
functional behavior at D2R (D2R): weak agonist/antagonist
inhibition at 10 µM (α3β2): < 50%
inhibition at 10 µM (α2β4): < 50%
shift of dopamine dose-response curves (D3R [2]): limitless rightward shift
inhibition at 10 µM (α3β4): < 50%
inhibition at 10 µM (α4β4): < 50%
functional behavior at D3R (D3R [4]): weak agonist/antagonist
inhibition at 10 µM (α2β2): < 50%

Compound: COc1ccccc1N1CCC2(CCN(CCCSc3nnc(-c4ccccc4)n3C)C2)CC1 [Compound 34, 8-(2-Methoxyphenyl)-2-(3-((4-methyl-5-phenyl-4H-1,2,4-triazol-3-yl)thio)propyl)-2,8-diazaspiro[4.5]decane]
increase in receptor selectivity (D3R [1]; relative to 33): 2 fold

Further lines, results first:

inhibition at 10 µM (α3β2): < 50%
inhibition at 10 µM (α2β4): < 50%
Schild plot regression slope (D3R [2]): linear regression slope near unity
shift of dopamine dose-response curves (D3R [2]): limitless rightward shift
Ki [3]: > 1000 nM
inhibition at 10 µM (α4β4): < 50%
inhibition at 10 µM (α2β2): < 50%
Compound: COc1ccccc1N1CCC2(CCN(CCCSc3nnc(-c4ccccc4)n3C)CC2)CC1 [Compound 1, 3-(2-methoxyphenyl)-9-(3-((4-methyl-5-phenyl-4H-1,2,4-triazol-3-yl)thio)-propyl)-3,9-diazaspiro[5.5]undecane]

D2/D3 ratio (D3R [1]): >9.6
Compound: CCCCN1CCC2(CC1)CCN(c1ccccc1OC)CC2 [Compound 5a, 3-Butyl-9-(2-methoxyphenyl)-3,9-diazaspiro[5.5]undecane]

D2/D3 ratio (D3R [1]): >3.6
Compound: CCCSc1nnc(-c2ccccc2)n1C [Compound 6a, 4-Methyl-3-phenyl-5-(propylthio)-4H-1,2,4-triazole]
